Measured values taken from patent US20220072019A1, “INHIBITORS OF SARM1 IN COMBINATION WITH NAD+ OR A NAD+ PRECURSOR” (Disarm Therapeutics, Inc., priority 2018, published 2022).
Entries after “also recorded” stand apart in the source; their conditions may differ.

Test system: DRG axons
Assay: Axon degeneration assay (axotomy of mouse DRG drop cultures)
Assay type: cell-based
Protocol: Mouse dorsal root ganglion neurons (DRGs) were dissected out of E12.5 CD1 mice (50 ganglia per embryo) and incubated with 0.5% Trypsin solution containing 0.02% EDTA (Gibco) at 37° C. for 15 min. The cells were then triturated by gentle pipetting and washed 3 times with DRG growth medium (Neurobasal medium (Gibco) containing 2% B27 (Invitrogen), 100 ng/ml 2.5S NGF (Harland Bioproducts), […] 5-fluoro-2′deoxyuridine (Sigma), penicillin, and streptomycin). Cells were suspended in the DRG growth medium. DRG drop cultures were created by spotting 5000 cells/well into the center of each well of a 96-well tissue culture plate coated with poly-D-Lysine (0.1 mg/ml; Sigma) and laminin ([…]; Invitrogen). Cells were allowed to adhere to the plates in a humidified tissue culture incubator (5% CO2) for 15 min and then DRG growth medium was gently added ([…]).
To study the axonal protective effects of combining NR supplementation with a SARM1 inhibitor, 6 day-old mouse DRG drop cultures were preincubated with 100 μM NR for 24 hours before axotomy. 2 hours prior to axotomy, DRG cultures were treated with SARM1 inhibitors, in the continued presence of 100 μM NR. Potent SARM1 inhibitors were selected from two classes: isoquinoline and isothiazole SARM1 inhibitors. Isoquinoline SARM1 inhibitors tested included I-26 and I-86, while isothiazole SARM1 inhibitors tested included II-6 and II-32. The SARM1 inhibitors were tested using concentrations ranging from 0.1 to 33 μM.
A manual axotomy was performed at time 0 by transecting the axons of the DRG neurons with a blade. After axotomy, DRG cultures remained exposed to the to SARM1 inhibitor alone, 100 μM NR alone, or the combination of SARM1 inhibitor and NR. At either 16 or 24 hours, DRG cultures were fixed in a buffered solution containing 1% PFA and sucrose and stored at 4° C. prior to imaging. Bright-field images of DRG axons and cell bodies were collected using the 20× water immersion lens of a Phenix automated confocal microscope (PerkinElmer) and quantitation of axonal damage was performed using in-house developed scripts (Acapella, PerkinElmer). The effect of NR alone in protecting distal axons from fragmentation was determined at a concentration of 100 μM. The effect of combining 100 μM NR with varying concentrations of a SARM1 inhibitor was compared to the individual protective effects of either 100 μM of NR alone or an equivalent concentration of a SARM1 inhibitor alone.

[1] = 1.1 μM SARM1 inhibitor alone, 24 h post-axotomy
[2] = 3.3 μM SARM1 inhibitor alone, 24 h post-axotomy
[3] = 3.3 μM SARM1 inhibitor alone, 16 h post-axotomy

Ic1cccc2cnccc12 [I-26]
axonal protection (degeneration index of DRG axons) [1]: no statistically significant benefit | axonal protection (degeneration index of DRG axons) [2]: more protection than with NR alone | axonal protection (degeneration index of DRG axons) (SARM1 inhibitor alone, concentration not stated in the sentence (1.1 or 3.3 μM tested), 16 h post-axotomy): modest amount of axonal protection

COc1cc(Br)c2ccncc2c1 [I-86]
axonal protection (degeneration index of DRG axons) (1.1 μM SARM1 inhibitor alone, 16 h post-axotomy): NR alone provided greater protection than 1.1 μM compound I-86 alone | axonal protection (degeneration index of DRG axons) [1]: less protection than NR alone | axonal protection (degeneration index of DRG axons) [3]: greater protection than NR alone

N#Cc1c(O)nsc1Nc1ccccc1C(F)(F)F [II-6]
axonal protection (degeneration index of DRG axons) [3]: stronger protection that NR alone; also recorded: stronger protection than NR alone | axonal protection (degeneration index of DRG axons) [2]: stronger protection than NR alone

COCCn1sc(Nc2ccccc2C(F)(F)F)c(C#N)c1=O [II-32]
axonal protection (degeneration index of DRG axons) (0.11 μM SARM1 inhibitor alone, 16 h post-axotomy): NR alone provided greater protection than 0.11 μM and 0.33 μM of compound II-32 alone | axonal protection (degeneration index of DRG axons) (0.11 μM SARM1 inhibitor alone, 24 h post-axotomy): NR alone provided greater protection than 0.11 μM and 0.33 μM compound II-32 alone | axonal protection (degeneration index of DRG axons) (0.33 μM SARM1 inhibitor alone, 16 h post-axotomy): NR alone provided greater protection than 0.11 μM and 0.33 μM of compound II-32 alone | axonal protection (degeneration index of DRG axons) (0.33 μM SARM1 inhibitor alone, 24 h post-axotomy): NR alone provided greater protection than 0.11 μM and 0.33 μM compound II-32 alone | axonal protection (degeneration index of DRG axons) (1 μM SARM1 inhibitor alone, 16 h post-axotomy): greater protection than NR alone | axonal protection (degeneration index of DRG axons) (1 μM SARM1 inhibitor alone, 24 h post-axotomy): greater protection than NR alone

NC(=O)c1ccc[n+]([C@@H]2O[C@H](CO)[C@@H](O)[C@H]2O)c1 [NR, 1-(β-D-ribofuranosyl)nicotinamide, reference compound]
axonal protection (degeneration index of DRG axons) (100 μM NR alone, 16 h post-axotomy): modest amount of axonal protection | axonal protection (degeneration index of DRG axons) (100 μM NR alone, 24 h post-axotomy): modest level of protection
